Where two headings read alike, the source gives them in different places. Bounds are passed on as bounds.

This passage reports EC50 and inhibition results from patent US9403823B2, “Protein kinase inhibitors” (ORIBASE PHARMA, priority 2012, dated 2016).

In one experiment the test system is A549 cell line. The experiment can be described thus: In vitro cell proliferation assay (MTT), A549. In kind it is cell-based. As to conditions: Homo sapiens, read-out: EC50, anti-proliferative activity. How it is done:
(§1) 2) In Vitro Cell Proliferation Assays (Table 22 to Table 35)
(§2) Cancer cell lines (5×10^3 cells per well) or HUVEC (1×10^4 cells per well) or HRMEC (1×10^4 cells per well) were distributed in 96-well plates and incubating in duplicate with escalating concentrations (10 nM to 3 μM) of compounds for 72 hr. Cell proliferation was measured using MTT (3[4,5-dimethylthiazol-2-yl]-2,5-diphenyltetrazolium bromide).

The target in the next experiment is T1, KDR (VEGFR2) (Homo sapiens, UniProt P35968).
T1 construct: purchased Invitrogen
The experiment can be described thus: In vitro kinase assay (Z'-LYTE), KDR (VEGFR2). The format is biochemical. As to conditions: read-out: % of inhibition of the kinase compared to the control. As to the method:
(§3) 1) In Vitro Kinase Assays (Table 10 to Table 21)
(§4) The inhibitory activity of the compounds on several kinases including BRAF, EGFR (ErbB1), EGFR (ErbB1) T790M L858R, FGFR2, KDR (VEGFR2), PDGFRA (PDGFR alpha), SRC and other was evaluated by Invitrogen using the Z′-LYTE® technology. Briefly, the Z′-LYTE® biochemical assay employs a fluorescence-based, coupled-enzyme format and is based on the differential sensitivity of phosphorylated and non-phosphorylated peptides to proteolytic cleavage. The peptide substrate is labeled with two fluorophores—one at each end—that make up a FRET pair. A ratiometric method, which calculates the ratio (the Emission Ratio) of donor emission to acceptor emission after excitation of the donor fluorophore at 400 nm, is used to quantitate reaction progress.
(§5) The compounds are screened in 1% DMSO (final) in the well. For 10 point titrations, 3-fold serial dilutions are conducted from the starting concentration. All Peptide/Kinase Mixtures are diluted to a 2× working concentration in the appropriate Kinase Buffer. All ATP Solutions are diluted to a 4× working concentration in Kinase Buffer (50 mM HEPES pH 7.5, 0.01% BRIJ-35, 10 mM MgCl2, 1 mM EGTA). ATP Km apparent is previously determined using a Z′-LYTE® assay.
(§6) Each compound was incubated at a concentration of 100 nM (excepted to test the activity against ABL and ABL T315I for which the compounds were incubated at a concentration of 10 μM) and the tables 10 to 21 summarize the results obtained showing the inhibitory power of a compound.

In the next experiment the target is T2, FGFR2 (Homo sapiens, UniProt P21802).
T2 construct: purchased Invitrogen
T2 sequence (P21802 22-821): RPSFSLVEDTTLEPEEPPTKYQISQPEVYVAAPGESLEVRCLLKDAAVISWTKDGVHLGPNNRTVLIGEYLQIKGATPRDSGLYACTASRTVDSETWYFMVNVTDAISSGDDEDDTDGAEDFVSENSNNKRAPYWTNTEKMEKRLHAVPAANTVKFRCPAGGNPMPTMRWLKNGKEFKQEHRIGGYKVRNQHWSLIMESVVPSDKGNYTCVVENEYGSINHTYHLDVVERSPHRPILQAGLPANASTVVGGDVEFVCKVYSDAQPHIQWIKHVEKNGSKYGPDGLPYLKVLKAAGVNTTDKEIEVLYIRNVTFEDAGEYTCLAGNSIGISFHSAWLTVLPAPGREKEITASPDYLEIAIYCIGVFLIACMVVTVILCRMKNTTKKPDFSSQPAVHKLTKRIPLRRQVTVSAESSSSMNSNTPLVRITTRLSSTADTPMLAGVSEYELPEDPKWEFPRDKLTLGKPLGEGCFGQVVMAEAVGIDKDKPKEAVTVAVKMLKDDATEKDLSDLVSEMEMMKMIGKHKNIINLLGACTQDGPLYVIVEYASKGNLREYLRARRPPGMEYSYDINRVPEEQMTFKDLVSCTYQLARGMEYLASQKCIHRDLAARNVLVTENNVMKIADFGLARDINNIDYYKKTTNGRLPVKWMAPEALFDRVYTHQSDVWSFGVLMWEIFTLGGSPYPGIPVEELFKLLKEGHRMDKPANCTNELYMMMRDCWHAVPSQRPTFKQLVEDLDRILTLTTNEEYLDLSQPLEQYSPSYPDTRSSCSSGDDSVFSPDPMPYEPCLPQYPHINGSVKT
The experiment is described as follows: In vitro kinase assay (Z'-LYTE), FGFR2. The format is biochemical. The note with it: read-out: % of inhibition of the kinase compared to the control. As to the method: as §3, §4, §5, §6

A further experiment deals with T3, BRAF (Homo sapiens, UniProt P15056).
T3 construct: purchased Invitrogen
T3 sequence (P15056 whole entry): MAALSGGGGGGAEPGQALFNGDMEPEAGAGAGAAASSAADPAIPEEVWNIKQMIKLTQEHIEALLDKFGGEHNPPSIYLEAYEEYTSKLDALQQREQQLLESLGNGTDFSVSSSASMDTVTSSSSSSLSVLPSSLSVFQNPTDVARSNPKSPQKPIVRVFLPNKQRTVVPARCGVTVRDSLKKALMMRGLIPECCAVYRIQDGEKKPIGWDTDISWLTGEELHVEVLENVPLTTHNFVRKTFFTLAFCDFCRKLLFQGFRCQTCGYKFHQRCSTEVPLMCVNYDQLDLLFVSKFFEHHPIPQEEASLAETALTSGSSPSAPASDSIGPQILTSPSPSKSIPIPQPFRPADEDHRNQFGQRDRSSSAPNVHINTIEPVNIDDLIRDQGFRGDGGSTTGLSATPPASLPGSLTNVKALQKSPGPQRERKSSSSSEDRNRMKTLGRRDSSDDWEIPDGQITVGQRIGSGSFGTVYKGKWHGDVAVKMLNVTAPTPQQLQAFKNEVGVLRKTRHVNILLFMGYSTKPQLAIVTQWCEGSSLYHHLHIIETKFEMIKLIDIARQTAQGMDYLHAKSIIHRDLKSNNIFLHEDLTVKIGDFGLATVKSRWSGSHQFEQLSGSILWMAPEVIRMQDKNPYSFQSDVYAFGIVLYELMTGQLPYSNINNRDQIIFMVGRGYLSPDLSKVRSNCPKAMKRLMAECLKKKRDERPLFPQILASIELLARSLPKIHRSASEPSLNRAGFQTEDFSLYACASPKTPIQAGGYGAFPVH
The experiment is described as follows: In vitro kinase assay (Z'-LYTE), BRAF. In kind it is biochemical. The note with it: read-out: % of inhibition of the kinase compared to the control. How it is done:
as §3, §4, §5, §6

The target of another experiment is T4, EGFR (ErbB1) T790M L858R (Homo sapiens, UniProt P00533, L858R/T790M).
T4 construct: purchased Invitrogen
The experiment can be described thus: In vitro kinase assay (Z'-LYTE), EGFR (ErbB1) T790M L858R. In kind it is biochemical. The note with it: read-out: % of inhibition of the kinase compared to the control. As to the method: as §3, §4, §5, §6

The next experiment addresses T5, PDGFRA (PDGFR alpha) (Homo sapiens, UniProt P16234).
T5 construct: purchased Invitrogen
The experiment is described as follows: In vitro kinase assay (Z'-LYTE), PDGFRA. In kind it is biochemical. As to conditions: read-out: % of inhibition of the kinase compared to the control. How it is done: as §3, §4, §5, §6

The next experiment concerns the target T6, SRC (Homo sapiens, UniProt P12931).
T6 construct: purchased Invitrogen
The experiment can be described thus: In vitro kinase assay (Z'-LYTE), SRC. In kind it is biochemical. The note with it: read-out: % of inhibition of the kinase compared to the control. How it is done: as §3, §4, §5, §6

A further experiment concerns the target T7, EGFR (ErbB1) (Homo sapiens, UniProt P00533).
T7 construct: purchased Invitrogen
The experiment is described as follows: In vitro kinase assay (Z'-LYTE), EGFR (ErbB1). In kind it is biochemical. The note with it: read-out: % of inhibition of the kinase compared to the control. As to the method:
as §3, §4, §5, §6

The test system of a further experiment is HUVEC. The experiment can be described thus: In vitro cell proliferation assay (MTT), HUVEC. As to conditions: Homo sapiens, 72 hr, MTT, read-out: EC50, anti-proliferative activity. The format is cell-based. As to the method: as §1, §2
The next experiment concerns HepG2 cell line. The experiment is described as follows: In vitro cell proliferation assay (MTT), HepG2. In kind it is cell-based. The note with it: Homo sapiens, read-out: EC50, anti-proliferative activity. How it is done: as §1, §2
For another experiment, the system named is MDA-MB-231 cell line. The experiment can be described thus: In vitro cell proliferation assay (MTT), MDA-MB-231. The format is cell-based. The note with it: Homo sapiens; MDA-MB-231, 72 hr, MTT; read-out: EC50, anti-proliferative activity. As to the method:
as §1, §2

T6 sequence (P12931 whole entry): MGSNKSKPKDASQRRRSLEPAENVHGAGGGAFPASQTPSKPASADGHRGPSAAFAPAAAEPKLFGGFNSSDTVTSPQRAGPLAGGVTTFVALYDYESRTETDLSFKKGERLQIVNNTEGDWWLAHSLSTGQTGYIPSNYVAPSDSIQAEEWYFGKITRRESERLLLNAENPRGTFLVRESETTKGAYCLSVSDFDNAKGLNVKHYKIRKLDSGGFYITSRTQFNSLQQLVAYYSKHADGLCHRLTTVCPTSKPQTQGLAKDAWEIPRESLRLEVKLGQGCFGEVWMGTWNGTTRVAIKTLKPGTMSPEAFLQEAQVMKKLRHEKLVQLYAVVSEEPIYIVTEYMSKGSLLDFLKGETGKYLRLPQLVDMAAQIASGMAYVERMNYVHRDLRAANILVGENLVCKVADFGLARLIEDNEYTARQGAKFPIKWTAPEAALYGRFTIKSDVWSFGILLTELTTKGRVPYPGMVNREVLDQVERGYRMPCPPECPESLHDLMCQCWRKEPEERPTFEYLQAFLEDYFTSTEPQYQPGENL
T7 sequence (P00533 25-1210): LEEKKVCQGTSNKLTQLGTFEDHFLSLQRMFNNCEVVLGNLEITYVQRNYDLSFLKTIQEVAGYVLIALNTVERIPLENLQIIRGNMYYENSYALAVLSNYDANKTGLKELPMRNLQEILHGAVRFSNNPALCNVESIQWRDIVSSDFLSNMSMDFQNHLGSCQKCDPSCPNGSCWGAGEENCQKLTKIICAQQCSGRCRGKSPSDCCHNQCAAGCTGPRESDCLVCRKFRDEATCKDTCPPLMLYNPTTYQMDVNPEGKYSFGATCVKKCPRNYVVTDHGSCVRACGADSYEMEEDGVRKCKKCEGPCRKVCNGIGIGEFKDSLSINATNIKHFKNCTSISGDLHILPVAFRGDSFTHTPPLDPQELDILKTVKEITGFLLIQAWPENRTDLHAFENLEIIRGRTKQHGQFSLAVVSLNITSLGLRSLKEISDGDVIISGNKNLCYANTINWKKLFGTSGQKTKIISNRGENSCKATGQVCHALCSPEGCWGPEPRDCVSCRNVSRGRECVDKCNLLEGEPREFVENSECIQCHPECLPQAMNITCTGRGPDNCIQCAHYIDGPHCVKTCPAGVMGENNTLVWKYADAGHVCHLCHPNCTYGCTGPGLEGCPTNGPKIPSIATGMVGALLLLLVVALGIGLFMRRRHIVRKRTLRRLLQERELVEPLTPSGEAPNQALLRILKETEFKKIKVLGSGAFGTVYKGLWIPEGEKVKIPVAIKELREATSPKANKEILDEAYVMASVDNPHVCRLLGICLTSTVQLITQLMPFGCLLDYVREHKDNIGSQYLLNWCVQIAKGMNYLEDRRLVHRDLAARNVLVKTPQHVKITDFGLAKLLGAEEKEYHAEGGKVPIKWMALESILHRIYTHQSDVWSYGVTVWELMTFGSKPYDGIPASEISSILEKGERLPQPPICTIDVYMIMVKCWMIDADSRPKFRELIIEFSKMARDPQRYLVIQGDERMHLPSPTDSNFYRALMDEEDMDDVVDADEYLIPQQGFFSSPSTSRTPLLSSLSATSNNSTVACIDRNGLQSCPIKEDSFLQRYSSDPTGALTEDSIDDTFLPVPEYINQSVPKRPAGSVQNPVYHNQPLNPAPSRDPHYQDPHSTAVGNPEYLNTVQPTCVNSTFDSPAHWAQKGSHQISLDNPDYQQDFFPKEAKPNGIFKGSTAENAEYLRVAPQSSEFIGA
T5 sequence (P16234 24-1089): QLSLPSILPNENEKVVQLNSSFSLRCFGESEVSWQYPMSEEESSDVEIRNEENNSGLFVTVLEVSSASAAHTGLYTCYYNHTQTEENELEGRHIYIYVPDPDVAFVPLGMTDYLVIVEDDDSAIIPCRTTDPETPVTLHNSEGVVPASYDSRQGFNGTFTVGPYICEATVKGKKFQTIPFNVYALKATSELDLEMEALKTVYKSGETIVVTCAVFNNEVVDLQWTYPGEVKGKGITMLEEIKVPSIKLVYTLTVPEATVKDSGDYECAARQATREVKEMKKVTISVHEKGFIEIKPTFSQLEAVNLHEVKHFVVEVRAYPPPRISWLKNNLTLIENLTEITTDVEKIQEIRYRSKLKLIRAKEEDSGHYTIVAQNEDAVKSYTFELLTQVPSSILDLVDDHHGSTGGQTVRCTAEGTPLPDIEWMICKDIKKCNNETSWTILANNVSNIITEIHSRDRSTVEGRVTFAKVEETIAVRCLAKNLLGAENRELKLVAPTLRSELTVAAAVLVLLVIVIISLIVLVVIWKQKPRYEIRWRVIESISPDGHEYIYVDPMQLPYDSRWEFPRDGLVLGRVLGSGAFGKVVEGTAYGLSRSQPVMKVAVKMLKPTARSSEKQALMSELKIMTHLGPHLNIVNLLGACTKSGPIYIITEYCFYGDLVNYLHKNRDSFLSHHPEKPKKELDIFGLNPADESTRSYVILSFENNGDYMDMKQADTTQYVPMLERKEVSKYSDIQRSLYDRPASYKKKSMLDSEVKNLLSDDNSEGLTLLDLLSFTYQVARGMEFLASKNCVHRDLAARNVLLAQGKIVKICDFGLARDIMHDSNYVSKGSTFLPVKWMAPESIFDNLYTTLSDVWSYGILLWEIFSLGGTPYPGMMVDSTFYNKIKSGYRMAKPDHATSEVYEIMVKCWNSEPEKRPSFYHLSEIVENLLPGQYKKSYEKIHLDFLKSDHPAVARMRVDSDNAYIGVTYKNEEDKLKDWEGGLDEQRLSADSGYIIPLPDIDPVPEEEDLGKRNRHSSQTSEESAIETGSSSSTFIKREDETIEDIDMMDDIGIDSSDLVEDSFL

The term EC50 denotes the concentration that produces a half-maximal response. As to `C#Cc1cccc(Nc2ncnc3cc(OCCOC)c(OCCOC)cc23)c1` [Erlotinib, reference compound], in the experiment on A549 cell line (A549, 72 hr, MTT), the EC50 is ≥ 1000 nM.

Usually inhibition stands for the drop in the measured response relative to a control, in per cent. On to `Cc1ccc(NC(=O)c2ccc(CN3CCN(C)CC3)cc2)cc1CNc1cnc2[nH]c(C(=O)O)cc2c1` [OR0692, 5-{2-Methyl-5-[4-(4-methyl-piperazin-1-ylmethyl)-benzoylamino]-benzylamino}-1H-pyrrolo[2,3-b]pyridine-2-carboxylic acid], for which the inhibition at 0.1 µM at KDR (VEGFR2) was ≥ 50%; on FGFR2 it was < 50%; at BRAF, < 50%; at EGFR (ErbB1) T790M L858R, < 50%; on PDGFRA (PDGFR alpha) it was ≥ 50%; on SRC, ≥ 50%. Moreover, at EGFR (ErbB1), the inhibition at 0.1 µM was ≥ 50%.

In the case of `CC(=O)c1cc2cc(NCc3cc(NC(=O)c4cc(-n5cnc(C)c5)cc(C(F)(F)F)c4)ccc3C)cnc2[nH]1` [OR0719, N-{3-[(2-Acetyl-1H-pyrrolo[2,3-b]pyridin-5-ylamino)-methyl]-4-methyl-phenyl}-3-(4-methyl-imidazol-1-yl)-5-trifluoromethyl-benzamide], the inhibition at 0.1 µM is < 50% on KDR (VEGFR2); < 50% at FGFR2; ≥ 50% at BRAF; < 50% on EGFR (ErbB1) T790M L858R; < 50% at PDGFRA (PDGFR alpha); ≥ 50% on SRC. Also, on EGFR (ErbB1), the inhibition at 0.1 µM was < 50%.

For `CC(=O)c1cc2cc(NCc3cccc(NC(=O)c4cncc(C(F)(F)F)c4)c3)cnc2[nH]1` [OR0950, N-{3-[(2-Acetyl-1H-pyrrolo[2,3-b]pyridin-5-ylamino)-methyl]-phenyl}-5-trifluoromethyl-nicotinamide], the inhibition at 0.1 µM is ≥ 50% at KDR (VEGFR2); < 50% on FGFR2; ≥ 50% at BRAF; ≥ 50% at PDGFRA (PDGFR alpha); < 50% on SRC; < 50% on EGFR (ErbB1). For the same compound, the EC50 in the experiment on HUVEC was ≥ 1000 nM; in the experiment on HepG2 cell line (HepG2, 72 h), 100 to 1000 nM.

On to `CC(=O)c1cc2cc(NC(=O)c3cc(NC(=O)Nc4cccc(C(F)(F)F)c4)ccc3C)cnc2[nH]1` [OR0951, N-(2-Acetyl-1H-pyrrolo[2,3-b]pyridin-5-yl)-2-methyl-5-[3-(3-trifluoromethyl-phenyl)-ureido]-benzamide], for which the inhibition at 0.1 µM on KDR (VEGFR2), on FGFR2, on BRAF, at PDGFRA (PDGFR alpha), at SRC and at EGFR (ErbB1) was < 50% in each case. Moreover, the EC50 in the experiment with HUVEC was ≥ 1000 nM; in the experiment with HepG2 cell line (HepG2, 72 h) it was ≤ 100 nM.

In the case of `CC(=O)c1cc2cc(NCc3cc(NC(=O)Cc4cccc(C(F)(F)F)c4)ccc3C)cnc2[nH]1` [OR0968, N-{3-[(2-Acetyl-1H-pyrrolo[2,3-b]pyridin-5-ylamino)-methyl]-4-methyl-phenyl}-2-(3-trifluoromethyl-phenyl)-acetamide], the inhibition at 0.1 µM at KDR (VEGFR2) is < 50%; at FGFR2, < 50%; on BRAF, ≥ 50%; at PDGFRA (PDGFR alpha) it was ≥ 50%; on SRC, < 50%; on EGFR (ErbB1), < 50%. Also, the concentration for a half-maximal effect (EC50) is ≥ 1000 nM in the experiment on HUVEC and 100 to 1000 nM in the experiment with HepG2 cell line (HepG2, 72 h).

On to `CC(=O)c1cc2cc(NCc3cc(NC(=O)c4ccc5[nH]nnc5c4)ccc3C)cnc2[nH]1` [OR0979, 1H-Benzotriazole-5-carboxylic acid {3-[(2-acetyl-1H-pyrrolo[2,3-b]pyridin-5-ylamino)-methyl]-4-methyl-phenyl}-amide], for which the inhibition at 0.1 µM is < 50% on KDR (VEGFR2); < 50% on FGFR2; ≥ 50% at BRAF; ≥ 50% on PDGFRA (PDGFR alpha); < 50% on SRC; < 50% at EGFR (ErbB1). Moreover, the EC50 is ≥ 1000 nM in the experiment on HUVEC and ≥ 1000 nM in the experiment with HepG2 cell line (HepG2, 72 hr, MTT).

On to `CC(=O)c1cc2cc(NCc3cc(NC(=O)c4ccc5[nH]ccc5c4)ccc3C)cnc2[nH]1` [OR0980, 1H-Indole-5-carboxylic acid {3-[(2-acetyl-1H-pyrrolo[2,3-b]pyridin-5-ylamino)-methyl]-4-methyl-phenyl}-amide], for which the inhibition at 0.1 µM was < 50% at KDR (VEGFR2); < 50% at FGFR2; ≥ 50% on BRAF; ≥ 50% at PDGFRA (PDGFR alpha); < 50% at SRC; < 50% at EGFR (ErbB1). Further, the concentration giving a half-maximal response (EC50) with HUVEC was ≥ 1000 nM; in the experiment on HepG2 cell line (HepG2, 72 h) it was 100 to 1000 nM.

As to `CC(=O)c1cc2cc(NCc3cc(NC(=O)c4cc[nH]c4)ccc3C)cnc2[nH]1` [OR0986, 1H-Pyrrole-3-carboxylic acid {3-[(2-acetyl-1H-pyrrolo[2,3-b]pyridin-5-ylamino)-methyl]-4-methyl-phenyl}-amide], the inhibition at 0.1 µM was < 50% on KDR (VEGFR2); < 50% on FGFR2; ≥ 50% at BRAF; ≥ 50% on PDGFRA (PDGFR alpha); < 50% at SRC; < 50% on EGFR (ErbB1). The EC50 with HUVEC was ≥ 1000 nM; with HepG2 cell line (HepG2, 72 hr, MTT), ≥ 1000 nM.

Consider `CC(=O)c1cc2cc(NCc3cc(NC(=O)c4ccn[nH]4)ccc3C)cnc2[nH]1` [OR0987, 2H-Pyrazole-3-carboxylic acid {3-[(2-acetyl-1H-pyrrolo[2,3-b]pyridin-5-ylamino)-methyl]-4-methyl-phenyl}-amide], for which the inhibition at 0.1 µM is ≥ 50% on KDR (VEGFR2); < 50% at FGFR2; ≥ 50% at BRAF; ≥ 50% at PDGFRA (PDGFR alpha); < 50% on SRC; < 50% on EGFR (ErbB1). Further, the 50% effective concentration (EC50) in the experiment with HUVEC was ≥ 1000 nM; in the experiment on HepG2 cell line (HepG2, 72 hr, MTT), ≥ 1000 nM.

Turning to `CC(=O)c1cc2cc(NCc3cc(NC(=O)c4ccncn4)ccc3C)cnc2[nH]1` [OR0988, Pyrimidine-4-carboxylic acid {3-[(2-acetyl-1H-pyrrolo[2,3-b]pyridin-5-ylamino)-methyl]-4-methyl-phenyl}-amide], the inhibition at 0.1 µM at KDR (VEGFR2), at FGFR2, on BRAF, on PDGFRA (PDGFR alpha), on SRC and at EGFR (ErbB1) was < 50% each time. The EC50 was ≥ 1000 nM with HUVEC and ≥ 1000 nM with HepG2 cell line (HepG2, 72 hr, MTT).

`Cc1ccc(NC(=O)c2cncc(C(F)(F)F)c2)cc1C(=S)Nc1cnc2[nH]c(C(=O)O)cc2c1` [OR1053]: the inhibition at 0.1 µM was < 50% at KDR (VEGFR2); < 50% at FGFR2; < 50% at BRAF; ≥ 50% at PDGFRA (PDGFR alpha); ≥ 50% on SRC; ≥ 50% on EGFR (ErbB1). The EC50 with A549 cell line (A549, 72 hr, MTT) is ≥ 1000 nM; with MDA-MB-231 cell line it was ≥ 1000 nM; in the experiment on HUVEC, ≥ 1000 nM; in the experiment with HepG2 cell line (HepG2, 72 hr, MTT), ≥ 1000 nM.

As for `CCN(CC)C(=O)c1cc2cc(NCc3cc(NC(=O)c4ccc(CN5CCN(C)CC5)c(C(F)(F)F)c4)ccc3C)cnc2[nH]1` [OR1076, 5-{2-Methyl-5-[4-(4-methyl-piperazin-1-ylmethyl)-3-trifluoromethyl-benzoylamino]-benzylamino}-1H-pyrrolo[2,3-b]pyridine-2-carboxylic acid diethylamide], the EC50 in the experiment on A549 cell line (A549, 72 h) was 100 to 1000 nM.
